tested on: late watergrass; experiment: Test Example 1: herbicidal activity, application before weed generation under submerged conditions (Table 16, symbol A); format: in vivo, late watergrass (Echinochloa oryzicola); conditions: amount of applied herbicide 320 g/ha
Outline: (§1)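 Emulsion formulation, water-diluted to set dose, was put onto the flooded surface (4 cm depth, alluvial soil) the same day weeds were sown and 2.5-leaf rice transplanted. After 3 weeks at 25-30 °C under glass, each species was rated 0 (≤5% kill) to 5 (≥90% kill).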

SMILES | Herbicidal effect, A: late watergrass
COc1ccccc1-c1sc2cc(F)ccc2c1-c1c(OS(=O)(=O)c2ccc(C)cc2)c(C)nn(C)c1=O [3-027] | 2 (Herbicidal rate of 20% or more and less than 40%)
COc1ccccc1-c1sc2cc(F)ccc2c1-c1c(OS(=O)(=O)N(C)C)c(C)nn(C)c1=O [3-028] | 2 (Herbicidal rate of 20% or more and less than 40%)

tested on: Japanese bulrush; experiment: Test Example 1: herbicidal activity, application before weed generation under submerged conditions (Table 16, symbol B); format: in vivo, Japanese bulrush (Schoenoplectus juncoides); conditions: amount of applied herbicide 320 g/ha
Outline: as §1

SMILES | Herbicidal effect, B: Japanese bulrush
COc1ccccc1-c1sc2cc(F)ccc2c1-c1c(OS(=O)(=O)c2ccc(C)cc2)c(C)nn(C)c1=O [3-027] | 3 (Herbicidal rate of 40% or more and less than 70%)
COc1ccccc1-c1sc2cc(F)ccc2c1-c1c(OS(=O)(=O)N(C)C)c(C)nn(C)c1=O [3-028] | 0 (Herbicidal rate of 5% or less (almost no effect))

tested on: oval-leafed pondweed; experiment: Test Example 1: herbicidal activity, application before weed generation under submerged conditions (Table 16, symbol C); format: in vivo, oval-leafed pondweed (Monochoria vaginalis); conditions: amount of applied herbicide 320 g/ha
Outline: as §1

SMILES | Herbicidal effect, C: oval-leafed pondweed
COc1ccccc1-c1sc2cc(F)ccc2c1-c1c(OS(=O)(=O)c2ccc(C)cc2)c(C)nn(C)c1=O [3-027] | 5 (Herbicidal rate of 90% or more (almost completely withered))
COc1ccccc1-c1sc2cc(F)ccc2c1-c1c(OS(=O)(=O)N(C)C)c(C)nn(C)c1=O [3-028] | 0 (Herbicidal rate of 5% or less (almost no effect))

tested on: late watergrass; experiment: Test Example 2: herbicidal activity, application during weed generation under submerged conditions (Table 17, symbol A); format: in vivo, late watergrass (Echinochloa oryzicola); conditions: AAH 320 g/ha; application during weed generation, submerged conditions
Outline: (§2)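 Effect on each weed is rated three weeks post-treatment, using the same scoring criteria as the preceding test. Plants grow from mixed-sown seed in flooded alluvial soil (4 cm water) at 25° C. to 30° C., and are treated at one to two leaves with diluted emulsion dropped onto the water.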

SMILES | herbicidal effect rating, A: late watergrass
COc1ccccc1-c1sc2cc(F)ccc2c1-c1c(OS(=O)(=O)c2ccc(C)cc2)c(C)nn(C)c1=O [3-027] | 3 (Herbicidal rate of 40% or more and less than 70%)
COc1ccccc1-c1sc2cc(F)ccc2c1-c1c(OS(=O)(=O)N(C)C)c(C)nn(C)c1=O [3-028] | 2 (Herbicidal rate of 20% or more and less than 40%)

tested on: oval-leafed pondweed; experiment: Test Example 2: herbicidal activity, application during weed generation under submerged conditions (Table 17, symbol C); format: in vivo, oval-leafed pondweed (Monochoria vaginalis); conditions: AAH 320 g/ha; application during weed generation, submerged conditions
Outline: as §2

SMILES | herbicidal effect rating, C: oval-leafed pondweed
COc1ccccc1-c1sc2cc(F)ccc2c1-c1c(OS(=O)(=O)c2ccc(C)cc2)c(C)nn(C)c1=O [3-027] | 3 (Herbicidal rate of 40% or more and less than 70%)
COc1ccccc1-c1sc2cc(F)ccc2c1-c1c(OS(=O)(=O)N(C)C)c(C)nn(C)c1=O [3-028] | 0 (Herbicidal rate of 5% or less (almost no effect))

tested on: barnyard grass; experiment: Test Example 3: herbicidal effect by foliage application, Wagner pot (Table 18, symbol H); format: in vivo, barnyard grass (Echinochloa crus-galli); conditions: amount of applied herbicide 320 g/ha
Outline: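 Plants were sown in alluvial soil held under 0.1–0.5 cm standing water and grown 14 days in a greenhouse at 25–30 °C. An emulsifiable formulation, water-diluted to the set dose, was then sprayed onto the foliage, and effects were scored three weeks later using previously defined criteria.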

SMILES | herbicidal effect on H: barnyard grass
COc1ccccc1-c1sc2cc(F)ccc2c1-c1c(OS(=O)(=O)c2ccc(C)cc2)c(C)nn(C)c1=O [3-027] | 5 (Herbicidal rate of 90% or more (almost completely withered))
COc1ccccc1-c1sc2cc(F)ccc2c1-c1c(OS(=O)(=O)N(C)C)c(C)nn(C)c1=O [3-028] | 4 (Herbicidal rate of 70% or more and less than 90%)

tested on: southern crabgrass; experiment: Test Example 4: herbicidal effect by soil treatment (Table 19, symbol F); format: in vivo, southern crabgrass (Digitaria ciliaris); conditions: amount of applied herbicide 320 g/ha
Outline: (§3)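 Seeds were sown in sterilized diluvial soil and covered with about 1.5 cm of soil. An emulsion formulation diluted with water to a predetermined herbicide amount was sprayed evenly onto the soil surface. Plants grew in a greenhouse at 25° C. to 30° C., and the effect was scored three weeks after application using criteria from an earlier test.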

SMILES | F: southern crabgrass, herbicidal effect grade
COc1ccccc1-c1sc2cc(F)ccc2c1-c1c(OS(=O)(=O)c2ccc(C)cc2)c(C)nn(C)c1=O [3-027] | 0 (Herbicidal rate of 5% or less (almost no effect))
COc1ccccc1-c1sc2cc(F)ccc2c1-c1c(OS(=O)(=O)N(C)C)c(C)nn(C)c1=O [3-028] | 0 (Herbicidal rate of 5% or less (almost no effect))

tested on: wild oat; experiment: Test Example 4: herbicidal effect by soil treatment (Table 19, symbol I); format: in vivo, wild oat (Avena fatua); conditions: amount of applied herbicide 320 g/ha
Outline: as §3

SMILES | I: wild oat, herbicidal effect grade
COc1ccccc1-c1sc2cc(F)ccc2c1-c1c(OS(=O)(=O)c2ccc(C)cc2)c(C)nn(C)c1=O [3-027] | 0 (Herbicidal rate of 5% or less (almost no effect))
COc1ccccc1-c1sc2cc(F)ccc2c1-c1c(OS(=O)(=O)N(C)C)c(C)nn(C)c1=O [3-028] | 0 (Herbicidal rate of 5% or less (almost no effect))

tested on: windgrass; experiment: Test Example 4: herbicidal effect by soil treatment (Table 19, symbol L); format: in vivo, windgrass (Apera spica-venti); conditions: amount of applied herbicide 320 g/ha
Outline: as §3

SMILES | L: windgrass, herbicidal effect grade
COc1ccccc1-c1sc2cc(F)ccc2c1-c1c(OS(=O)(=O)c2ccc(C)cc2)c(C)nn(C)c1=O [3-027] | 0 (Herbicidal rate of 5% or less (almost no effect))
COc1ccccc1-c1sc2cc(F)ccc2c1-c1c(OS(=O)(=O)N(C)C)c(C)nn(C)c1=O [3-028] | 3 (Herbicidal rate of 40% or more and less than 70%)

tested on: velvetleaf; experiment: Test Example 4: herbicidal effect by soil treatment (Table 19, symbol M); format: in vivo, velvetleaf (Abutilon theophrasti); conditions: amount of applied herbicide 320 g/ha
Outline: as §3

SMILES | M: velvetleaf, herbicidal effect grade
COc1ccccc1-c1sc2cc(F)ccc2c1-c1c(OS(=O)(=O)c2ccc(C)cc2)c(C)nn(C)c1=O [3-027] | 0 (Herbicidal rate of 5% or less (almost no effect))
COc1ccccc1-c1sc2cc(F)ccc2c1-c1c(OS(=O)(=O)N(C)C)c(C)nn(C)c1=O [3-028] | 0 (Herbicidal rate of 5% or less (almost no effect))

tested on: redroot pigweed; experiment: Test Example 4: herbicidal effect by soil treatment (Table 19, symbol N); format: in vivo, redroot pigweed (Amaranthus retroflexus); conditions: amount of applied herbicide 320 g/ha
Outline: as §3

SMILES | N: redroot pigweed, herbicidal effect grade
COc1ccccc1-c1sc2cc(F)ccc2c1-c1c(OS(=O)(=O)c2ccc(C)cc2)c(C)nn(C)c1=O [3-027] | 0 (Herbicidal rate of 5% or less (almost no effect))
COc1ccccc1-c1sc2cc(F)ccc2c1-c1c(OS(=O)(=O)N(C)C)c(C)nn(C)c1=O [3-028] | 0 (Herbicidal rate of 5% or less (almost no effect))

tested on: chickweed; experiment: Test Example 4: herbicidal effect by soil treatment (Table 19, symbol P); format: in vivo, common chickweed (Stellaria media); conditions: amount of applied herbicide 320 g/ha
Outline: as §3

SMILES | P: chickweed, herbicidal effect grade
COc1ccccc1-c1sc2cc(F)ccc2c1-c1c(OS(=O)(=O)c2ccc(C)cc2)c(C)nn(C)c1=O [3-027] | 0 (Herbicidal rate of 5% or less (almost no effect))
COc1ccccc1-c1sc2cc(F)ccc2c1-c1c(OS(=O)(=O)N(C)C)c(C)nn(C)c1=O [3-028] | 0 (Herbicidal rate of 5% or less (almost no effect))

tested on: persian speedwell; experiment: Test Example 4: herbicidal effect by soil treatment (Table 19, symbol R); format: in vivo, Persian speedwell (Veronica persica); conditions: amount of applied herbicide 320 g/ha
Outline: as §3

SMILES | R: persian speedwell, herbicidal effect grade
COc1ccccc1-c1sc2cc(F)ccc2c1-c1c(OS(=O)(=O)c2ccc(C)cc2)c(C)nn(C)c1=O [3-027] | 0 (Herbicidal rate of 5% or less (almost no effect))
COc1ccccc1-c1sc2cc(F)ccc2c1-c1c(OS(=O)(=O)N(C)C)c(C)nn(C)c1=O [3-028] | 0 (Herbicidal rate of 5% or less (almost no effect))

tested on: southern crabgrass; experiment: Test Example 5: herbicidal effect by foliage application, plastic box (Table 20, symbol F); format: in vivo, southern crabgrass (Digitaria ciliaris); conditions: foliage application, 320 g/ha, three weeks after application
Outline: (§4)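 Plants sown in sterilized diluvial soil and grown 14 days in a greenhouse at 25° C to 30° C, then sprayed on the foliage with the compound's emulsion diluted in water to a predetermined herbicide amount. Injury to weeds and crops scored three weeks after application on a visual rating scale.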

SMILES | F: southern crabgrass, herbicidal effect grade
COc1ccccc1-c1sc2cc(F)ccc2c1-c1c(OS(=O)(=O)c2ccc(C)cc2)c(C)nn(C)c1=O [3-027] | 3 (Herbicidal rate of 40% or more and less than 70%)
COc1ccccc1-c1sc2cc(F)ccc2c1-c1c(OS(=O)(=O)N(C)C)c(C)nn(C)c1=O [3-028] | 3 (Herbicidal rate of 40% or more and less than 70%)

tested on: green foxtail; experiment: Test Example 5: herbicidal effect by foliage application, plastic box (Table 20, symbol G); format: in vivo, green foxtail (Setaria viridis); conditions: foliage application, 320 g/ha, three weeks after application
Outline: as §4

SMILES | G: green foxtail, herbicidal effect grade
COc1ccccc1-c1sc2cc(F)ccc2c1-c1c(OS(=O)(=O)c2ccc(C)cc2)c(C)nn(C)c1=O [3-027] | 5 (Herbicidal rate of 90% or more (almost completely withered))
COc1ccccc1-c1sc2cc(F)ccc2c1-c1c(OS(=O)(=O)N(C)C)c(C)nn(C)c1=O [3-028] | 4 (Herbicidal rate of 70% or more and less than 90%)

tested on: redroot pigweed; experiment: Test Example 5: herbicidal effect by foliage application, plastic box (Table 20, symbol N); format: in vivo, redroot pigweed (Amaranthus retroflexus); conditions: foliage application, 320 g/ha, three weeks after application
Outline: as §4

SMILES | N: redroot pigweed, herbicidal effect grade
COc1ccccc1-c1sc2cc(F)ccc2c1-c1c(OS(=O)(=O)c2ccc(C)cc2)c(C)nn(C)c1=O [3-027] | 5 (Herbicidal rate of 90% or more (almost completely withered))
COc1ccccc1-c1sc2cc(F)ccc2c1-c1c(OS(=O)(=O)N(C)C)c(C)nn(C)c1=O [3-028] | 5 (Herbicidal rate of 90% or more (almost completely withered))

— patent US20230085307A1, “PYRIDAZINONE COMPOUND AND HERBICIDE” (NISSAN CHEMICAL CORPORATION, priority 2019, published 2023)
